# In patent publication US20100173935A1, “Muscarinic Receptor Agonists that are Effective in the Treatment of Pain, Alzheimer's Disease and Schizophrenia” (AstraZeneca AB, priority 2006, published 2010):
# Target: T1, hM1 (human Muscarinic receptor subtype 1) (Homo sapiens, UniProt P11229)
# T1 construct: expressed in transfected cells; host or cells: CHO cells (ATCC)
# T1 sequence (P11229 1-460): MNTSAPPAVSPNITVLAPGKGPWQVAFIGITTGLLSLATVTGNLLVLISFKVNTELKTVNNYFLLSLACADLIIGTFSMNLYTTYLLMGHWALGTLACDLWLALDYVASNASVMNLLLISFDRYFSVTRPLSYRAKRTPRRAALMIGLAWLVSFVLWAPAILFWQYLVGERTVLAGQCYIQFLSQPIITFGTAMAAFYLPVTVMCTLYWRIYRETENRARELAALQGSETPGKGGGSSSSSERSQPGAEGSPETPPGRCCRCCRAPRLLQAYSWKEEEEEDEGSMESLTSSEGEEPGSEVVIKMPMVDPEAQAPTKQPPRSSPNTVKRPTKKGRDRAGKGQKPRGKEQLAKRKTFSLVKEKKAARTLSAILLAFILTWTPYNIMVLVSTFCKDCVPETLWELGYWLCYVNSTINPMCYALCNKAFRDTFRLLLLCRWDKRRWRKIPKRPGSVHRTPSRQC
# Test: Human M1 calcium mobilization FLIPR assay
# Type: cell-based
# Details: CHO cells expressing hM1, Ca2+ release
# Description: The compound activity in the present invention (EC50 or IC50) was measured using a 384 plate-based imaging assay that monitors drug induced intracellular Ca^2+ release in whole cells. Activation of hM1 (human Muscarinic receptor subtype 1, gene bank access NM_000738), rM1 (rat Muscarinic receptor subtype 1, gene bank access NM_080773), hM3 (human Muscarinic receptor subtype 3, gene bank access NM_000740NM_000740) and hM5 (human Muscarinic receptor subtype 5, gene bank access NM_0121258), receptors expressed in CHO cells (chinese hamster ovary cells, ATCC) was quantified in a Molecular Devices FLIPR II™ instrument as an increase in fluorescent signal. Inhibition of hM3 and hM5 by compounds was determined by the decrease in fluorescent signal in response to 20 nM carbachol activation.
# CHO cells were plated in 384-black polylysine coated plate (Costar) at 8000 cells/well/50 μl for 24 hours or 4000 cells/well for 48 hours in a humidified incubator (5% CO2 and 37° C.) in DMEM/F12 medium without selection agent. Prior to the experiment the cell culture medium was removed from the plates by inversion. A loading solution of 30 μl of Hank's balanced salt solution, 10 mM Hepes and 2.5 mM Probenicid at Ph 7.4 (Cat no. 311-520-VL, Wisent) with 2 μM calcium indicator dye (FLUO-3AM, Molecular Probes F14202) was added to each well. Plates were incubated at 37° C. for 60 minutes prior to start the experiment. The incubation was terminated by washing the cells four times in assay buffer, leaving a residual 25 μl buffer per well. Cell plates were then transferred to the FLIPR, ready for compound additions.
# The day of experiment, carbachol and compounds were diluted in three-fold concentration range (10 points serial dilution) for addition by FLIPR instrument. For all calcium assays, a baseline reading was taken for 30 seconds followed by the addition of 12.5 μl (25 μl for hM1 and rM1) of compounds, resulting in a total well volume of 37.5 μl (50 μl for hM1 and rM1). Data were collected every 1.6 seconds for 300 seconds. For hM3 and hM5 an additional 12.5 μl of carbachol (20 nM final) was added at 300 seconds. After this addition of carbachol (producing a final volume of 50 μl), the FLIPR continued to collect data every 2 seconds for 240 seconds. The fluorescence emission was read using filter 1 (emission 520-545 nm) by the FLIPR on board CCD camera.
# Calcium mobilization output data were calculated as the maximal relative fluorescence unit (RFU) minus the minal value for both compound and agonist reading frame (except for hM1 and rM1 using only the maximal RFU). Data were analyzed using sigmoidal fits of a non-linear curve-fitting program (XLfit version 5.0.6 from ID Business Solutions Limited, Guildford, UK). All EC50 and IC50 values are reported as arithmetic means±standard error of mean of ‘n’ independent experiments.
row,Structure (SMILES),EC50 [nM]
1,"CCOC(=O)N1CC[C@H](N2CCC(n3c(=O)[nH]c4ccc(C)cc43)CC2)C1 (single isomer, unassigned) [Example 37]",0.6
2,"CCOC(=O)N1CCC(N2CCC(n3c(=O)[nH]c4ccc(C)cc43)CC2)C1 (single isomer, unassigned) [Example 38]",7.9
3,"CCOC(=O)N1CC[C@H](N2CCC(n3c(=O)[nH]c4ccc(OC)cc43)CC2)C1 (single isomer, unassigned) [Example 39]",21.9
4,"CCOC(=O)N1CCC(N2CCC(n3c(=O)n(C)c4ccccc43)CC2)C1 (centres unmarked) [Example 10, Ethyl 3-[4-(3-methyl-2-oxo-2,3-dihydro-1H-benzimidazol-1-yl)piperidin-1-yl]pyrrolidine-1-carboxylate]",286
5,"CCOC(=O)N1CCC(N2CCC(n3nnc4ccccc43)CC2)C1 (centres unmarked) [Example 11, ethyl 3-[4-(1H-1,2,3-benzotriazol-1-yl)piperidin-1-yl]pyrrolidine-1-carboxylate]",612
6,"CCOC(=O)N1CCC(N2CCC(=C3C(=O)Nc4ccccc43)CC2)C1 (centres unmarked) [Example 12, Ethyl 3-[4-(2-oxo-1,2-dihydro-3H-indol-3-ylidene)piperidin-1-yl]pyrrolidine-1-carboxylate]",2690
7,"Cn1cccc1C(=O)N1CC[C@H](N2CCC(n3c(=O)[nH]c4ccccc43)CC2)C1 [Example 21, 1-(1-{(3S)-1-[(1-methyl-1H-pyrrol-2-yl)carbonyl]pyrrolidin-3-yl}piperidin-4-yl)-1,3-dihydro-2H-benzimidazol-2-one]",1180
8,"CCOC(=O)N1CCC(N2C3CCC2CC(n2c(=O)[nH]c4ccccc42)C3)C1 (centres unmarked) [Example 30, Ethyl 3-[3-(2-oxo-2,3-dihydro-1H-benzimidazol-1-yl)-8-azabicyclo[3.2.1]oct-8-yl]pyrrolidine-1-carboxylate]",518
